Test results reported in patent US20110305637A1, “RADIOLABELLED PDE10 LIGANDS” (Janssen Pharmaceutica N.V., priority 2009, published 2011).

Test: Plasma metabolite analysis
Format: in vivo
Conditions: rat plasma, 60 min p.i.
Experimental: The metabolic stability of [^18F]B-1 was studied in normal rats by determination of the relative amounts of parent tracer and metabolites in the blood at 1 hour p.i. of the tracer. After intravenous (i.v.) administration of about 19 MBq [^18F]B-1 via tail vein under anesthesia (2.5% Isoflurane in O2 at 1 L/min flow rate), rats were sacrificed by decapitation at 60 min p.i. (n=2). Blood was collected in heparin containing tubes (4.5 mL LH PST tubes; BD vacutainer, BD, Franklin Lakes, N.J., USA) and immediately centrifuged for 10 min at 3000 rpm to separate the plasma. […] After passing through UV detector (254 nm), the HPLC eluate was collected as 1-mL fractions using an automatic fraction collector and the radioactivity of these fractions was measured in the γ-counter.
The metabolic stability was assessed in plasma collected from normal rats (n=2) 60 min post injection of [^18F]B-1 using RP-HPLC. […]
The metabolic stability of [^18F]B-2 was studied in normal rats by determination of the relative amounts of parent tracer and metabolites in the blood at 1 hour p.i. of the tracer. […] After passing through UV detector (254 nm), the HPLC eluate was collected as 1-mL fractions using an automatic fraction collector and the radioactivity of these fractions was measured in the γ-counter. […]

[18F]CCCn1cc(-c2ccncc2)c(-c2ccc(OCc3ccc4ccccc4n3)cc2)n1 [[^18F]B-1]
Relative percentage of apolar metabolite(s)/components: 1.6 ± 1.5%
